Measurements published in the supplement of paper PMC10307832.

Columns and labels:
Assay in all cases: relative viability (nuclei count vs DMSO), 5 days (fraction); higher = more cells survive
ABC-1 = test system: ABC-1
Method in brief: (§1)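 Relative viability was taken as the ratio of nuclei in treated wells to nuclei in vehicle wells. Lung cancer cell lines in 1536-well plates received compounds by pin tool one day after seeding, either one drug alone or a fixed anchor-drug dose plus five library-drug doses (not always all listed) in √10 steps. Nuclei were counted on 4× images after 5 days of treatment, and values are medians of duplicate plates.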

BEN = test system: BEN
Method in brief: as §1

EPLC-272H = test system: EPLC-272H
Method in brief: as §1

HCC-827 = test system: HCC-827
Method in brief: as §1

HOP-62 = test system: HOP-62
Method in brief: as §1

LU99A = test system: LU99A
Method in brief: as §1

NCI-H1355 = test system: NCI-H1355
Method in brief: as §1

NCI-H1666 = test system: NCI-H1666
Method in brief: as §1

NCI-H1792 = test system: NCI-H1792
Method in brief: as §1

NCI-H1975 = test system: NCI-H1975
Method in brief: as §1

NCI-H2170 = test system: NCI-H2170
Method in brief: as §1

NCI-H23 = test system: NCI-H23
Method in brief: as §1

NCI-H2405 = test system: NCI-H2405
Method in brief: as §1

NCI-H3122 = test system: NCI-H3122
Method in brief: as §1

NCI-H322M = test system: NCI-H322M
Method in brief: as §1

NCI-H358 = test system: NCI-H358
Method in brief: as §1

NCI-H520 = test system: NCI-H520
Method in brief: as §1

NCI-H596 = test system: NCI-H596
Method in brief: as §1

NCI-H647 = test system: NCI-H647
Method in brief: as §1

NCI-H727 = test system: NCI-H727
Method in brief: as §1

NCI-H838 = test system: NCI-H838
Method in brief: as §1

PC-14 = test system: PC-14
Method in brief: as §1

UMC-11 = test system: UMC-11
Method in brief: as §1

Structure (SMILES): Cc1cnc(-c2cnc(NCCNc3ccc(C#N)cn3)nc2-c2ccc(Cl)cc2Cl)[nH]1 + CS(=O)(=O)N1CCN(Cc2cc3nc(-c4cccc5[nH]ncc45)nc(N4CCOCC4)c3s2)CC1 [Pictilisib] (partner 1 µM)
- relative viability (ABC-1; first compound 0.08 µM): 1
- relative viability (ABC-1; first compound 0.253 µM): 0.584
- relative viability (ABC-1; first compound 0.8 µM): 0.75
- relative viability (ABC-1; first compound 2.53 µM): 0.744
- relative viability (BEN; first compound 0.08 µM): 0.572
- relative viability (BEN; first compound 0.253 µM): 0.596
- relative viability (BEN; first compound 0.8 µM): 0.612
- relative viability (BEN; first compound 2.53 µM): 0.648
- relative viability (EPLC-272H; first compound 0.08 µM): 0.337
- relative viability (EPLC-272H; first compound 0.253 µM): 0.325
- relative viability (EPLC-272H; first compound 0.8 µM): 0.316
- relative viability (EPLC-272H; first compound 2.53 µM): 0.358
- relative viability (HCC-827; first compound 0.08 µM): 1.02
- relative viability (HCC-827; first compound 0.8 µM): 0.951
- relative viability (HCC-827; first compound 2.53 µM): 0.813
- relative viability (HOP-62; first compound 0.08 µM): 0.777
- relative viability (HOP-62; first compound 0.253 µM): 0.688
- relative viability (HOP-62; first compound 0.8 µM): 0.725
- relative viability (HOP-62; first compound 2.53 µM): 0.647
- relative viability (LU99A; first compound 0.08 µM): 0.314
- relative viability (LU99A; first compound 0.253 µM): 0.348
- relative viability (LU99A; first compound 0.8 µM): 0.348
- relative viability (LU99A; first compound 2.53 µM): 0.41
- relative viability (NCI-H1355; first compound 0.08 µM): 0.442
- relative viability (NCI-H1355; first compound 0.253 µM): 0.366
- relative viability (NCI-H1355; first compound 0.8 µM): 0.399
- relative viability (NCI-H1355; first compound 2.53 µM): 0.542
- relative viability (NCI-H1666; first compound 0.08 µM): 0.434
- relative viability (NCI-H1666; first compound 0.253 µM): 0.295
- relative viability (NCI-H1666; first compound 0.8 µM): 0.332
- relative viability (NCI-H1666; first compound 2.53 µM): 0.589
- relative viability (NCI-H1792; first compound 0.08 µM): 0.34
- relative viability (NCI-H1792; first compound 0.253 µM): 0.268
- relative viability (NCI-H1792; first compound 0.8 µM): 0.25
- relative viability (NCI-H1792; first compound 2.53 µM): 0.385
- relative viability (NCI-H1975; first compound 0.08 µM): 0.328
- relative viability (NCI-H1975; first compound 0.253 µM): 0.297
- relative viability (NCI-H1975; first compound 0.8 µM): 0.299
- relative viability (NCI-H1975; first compound 2.53 µM): 0.338
- relative viability (NCI-H2170; first compound 0.08 µM): 0.29
- relative viability (NCI-H2170; first compound 0.253 µM): 0.307
- relative viability (NCI-H2170; first compound 0.8 µM): 0.261
- relative viability (NCI-H2170; first compound 2.53 µM): 0.318
- relative viability (NCI-H23; first compound 0.08 µM): 0.511
- relative viability (NCI-H23; first compound 0.253 µM): 0.56
- relative viability (NCI-H23; first compound 0.8 µM): 0.535
- relative viability (NCI-H23; first compound 2.53 µM): 0.613
- relative viability (NCI-H2405; first compound 0.08 µM): 0.472
- relative viability (NCI-H2405; first compound 0.253 µM): 0.485
- relative viability (NCI-H2405; first compound 0.8 µM): 0.422
- relative viability (NCI-H2405; first compound 2.53 µM): 0.412
- relative viability (NCI-H3122; first compound 0.08 µM): 0.65
- relative viability (NCI-H3122; first compound 0.253 µM): 0.64
- relative viability (NCI-H3122; first compound 0.8 µM): 0.646
- relative viability (NCI-H3122; first compound 2.53 µM): 0.763
- relative viability (NCI-H322M; first compound 0.08 µM): 0.59
- relative viability (NCI-H322M; first compound 0.253 µM): 0.523
- relative viability (NCI-H322M; first compound 0.8 µM): 0.413
- relative viability (NCI-H322M; first compound 2.53 µM): 0.538
- relative viability (NCI-H358; first compound 0.08 µM): 0.301
- relative viability (NCI-H358; first compound 0.8 µM): 0.389
- relative viability (NCI-H358; first compound 2.53 µM): 0.264
- relative viability (NCI-H520; first compound 0.08 µM): 0.286
- relative viability (NCI-H520; first compound 0.253 µM): 0.336
- relative viability (NCI-H520; first compound 0.8 µM): 0.346
- relative viability (NCI-H520; first compound 2.53 µM): 0.497
- relative viability (NCI-H596; first compound 0.08 µM): 0.424
- relative viability (NCI-H596; first compound 0.253 µM): 0.397
- relative viability (NCI-H596; first compound 0.8 µM): 0.391
- relative viability (NCI-H596; first compound 2.53 µM): 0.435
- relative viability (NCI-H647; first compound 0.08 µM): 0.451
- relative viability (NCI-H647; first compound 0.253 µM): 0.45
- relative viability (NCI-H647; first compound 0.8 µM): 0.366
- relative viability (NCI-H647; first compound 2.53 µM): 0.458
- relative viability (NCI-H727; first compound 0.08 µM): 0.462
- relative viability (NCI-H727; first compound 0.253 µM): 0.259
- relative viability (NCI-H727; first compound 0.8 µM): 0.378
- relative viability (NCI-H727; first compound 2.53 µM): 0.435
- relative viability (NCI-H838; first compound 0.08 µM): 0.525
- relative viability (NCI-H838; first compound 0.253 µM): 0.552
- relative viability (NCI-H838; first compound 0.8 µM): 0.737
- relative viability (NCI-H838; first compound 2.53 µM): 1.19
- relative viability (PC-14; first compound 0.08 µM): 0.662
- relative viability (PC-14; first compound 0.253 µM): 0.775
- relative viability (PC-14; first compound 0.8 µM): 0.55
- relative viability (PC-14; first compound 2.53 µM): 0.645
- relative viability (UMC-11; first compound 0.08 µM): 0.871
- relative viability (UMC-11; first compound 0.253 µM): 0.777
- relative viability (UMC-11; first compound 0.8 µM): 0.496
- relative viability (UMC-11; first compound 2.53 µM): 0.859
